# Experimental data reported in ChEMBL document CHEMBL1201862, “PubChem BioAssay data set” (2004).
#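 Cultured in 96-well plates, cells were exposed to test compound for 48 hours across five concentrations. GI50 marks 50% less growth.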 Calls of active or inactive are those of the source. Cut-off read from the data, not from the text of the source: active = GI50 up to about 1.1 µM and inactive = higher.
# Experiments:
# Assay in all cases: NCI tumour cell line growth inhibition, 48 h
# CCRF-CEM = test system: CCRF-CEM
# COLO 205 = test system: COLO 205
# EKVX = test system: EKVX
# HCT-116 = test system: HCT-116
# HT-29 = test system: HT-29
# K562 = test system: K562
# MOLT-4 = test system: MOLT-4
# Malme-3M = test system: Malme-3M
# OVCAR-3 = test system: OVCAR-3
# OVCAR-4 = test system: OVCAR-4
# SF-268 = test system: SF-268
# SF-295 = test system: SF-295
# SK-OV-3 = test system: SK-OV-3
# SNB-75 = test system: SNB-75
# UACC-257 = test system: UACC-257
# IGROV-1 = test system: IGROV-1
# LOX IMVI = test system: LOX IMVI
# RPMI-8226 = test system: RPMI-8226
Compound,GI50 (CCRF-CEM),GI50 (COLO 205),GI50 (EKVX),GI50 (HCT-116),GI50 (HT-29),GI50 (K562),GI50 (MOLT-4),GI50 (Malme-3M),GI50 (OVCAR-3),GI50 (OVCAR-4),GI50 (SF-268),GI50 (SF-295),GI50 (SK-OV-3),GI50 (SNB-75),GI50 (UACC-257),GI50 (IGROV-1),GI50 (LOX IMVI),GI50 (RPMI-8226)
C=CCC1[C@@H](C(C)(C)C(C(C)=O)C(=O)C(=O)OC)OC(C(C)(C)C)N1C(=O)OC (stereo not given in full),49 µM (inactive),> 100 µM (inactive),> 100 µM (inactive),47.4 µM (inactive),> 100 µM (inactive),40.6 µM (inactive),24.6 µM (inactive),> 100 µM (inactive),> 100 µM (inactive),> 100 µM (inactive),> 100 µM (inactive),> 100 µM (inactive),> 100 µM (inactive),80.4 µM (inactive),> 100 µM (inactive),–,–,–
CC1(C(=O)O)CCOc2ccccc21 (stereo not given),> 100 µM (inactive),> 100 µM (inactive),> 100 µM (inactive),> 100 µM (inactive),> 100 µM (inactive),> 100 µM (inactive),> 100 µM (inactive),> 100 µM (inactive),> 100 µM (inactive),> 100 µM (inactive),> 100 µM (inactive),> 100 µM (inactive),–,> 100 µM (inactive),> 100 µM (inactive),> 100 µM (inactive),> 100 µM (inactive),> 100 µM (inactive)
COc1ccc(NC(=O)C2C(=O)N(c3ccc(OC)cc3)C(=O)/C2=N\N)cc1 (stereo not given),> 100 µM (inactive),> 100 µM (inactive),> 100 µM (inactive),> 100 µM (inactive),> 100 µM (inactive),65 µM (inactive),> 100 µM (inactive),> 100 µM (inactive),–,–,> 100 µM (inactive),> 100 µM (inactive),–,–,> 100 µM (inactive),> 100 µM (inactive),–,–
O=C(CSc1nc(-c2ccccc2)c(-c2ccccc2)[nH]1)N/N=C/c1ccc([N+](=O)[O-])cc1,21.4 µM (inactive),16.7 µM (inactive),–,18.7 µM (inactive),19.2 µM (inactive),–,18.6 µM (inactive),18.4 µM (inactive),15.1 µM (inactive),23 µM (inactive),16.2 µM (inactive),19.8 µM (inactive),14.5 µM (inactive),21.8 µM (inactive),19 µM (inactive),17.6 µM (inactive),15.9 µM (inactive),16.6 µM (inactive)
Cc1cccc2c1Oc1cc(Cl)ccc1C2NC(=O)CN(C)C (stereo not given),49.1 µM (inactive),33.5 µM (inactive),26.5 µM (inactive),27.5 µM (inactive),36.6 µM (inactive),36 µM (inactive),29.2 µM (inactive),–,–,53.5 µM (inactive),74.3 µM (inactive),–,73.8 µM (inactive),21.1 µM (inactive),31.6 µM (inactive),35.2 µM (inactive),42.6 µM (inactive),29.2 µM (inactive)
Cl[Si]1(Cl)Oc2ccccc2O[Si](Cl)(Cl)Oc2ccccc2O1,1.45 µM (inactive),13.8 µM (inactive),31 µM (inactive),33.2 µM (inactive),17 µM (inactive),15.3 µM (inactive),3.25 µM (inactive),18.7 µM (inactive),21.7 µM (inactive),11.8 µM (inactive),15 µM (inactive),31.3 µM (inactive),54.3 µM (inactive),19.9 µM (inactive),–,28.6 µM (inactive),9.14 µM (inactive),9.18 µM (inactive)
CC(=O)OCCOCNC(=S)N/N=C/c1cc([N+](=O)[O-])ccc1O,56.6 µM (inactive),75 µM (inactive),> 100 µM (inactive),64.3 µM (inactive),> 100 µM (inactive),> 100 µM (inactive),–,> 100 µM (inactive),42.5 µM (inactive),84.5 µM (inactive),77.4 µM (inactive),> 100 µM (inactive),> 100 µM (inactive),> 100 µM (inactive),> 100 µM (inactive),> 100 µM (inactive),> 100 µM (inactive),–
Cc1ccccc1NC(=O)CSc1nnc(-c2ccc(/N=C\c3ccc(Cl)cc3)cc2)o1,> 100 µM (inactive),> 100 µM (inactive),> 100 µM (inactive),> 100 µM (inactive),> 100 µM (inactive),> 100 µM (inactive),> 100 µM (inactive),> 100 µM (inactive),–,> 100 µM (inactive),> 100 µM (inactive),> 100 µM (inactive),> 100 µM (inactive),> 100 µM (inactive),> 100 µM (inactive),–,> 100 µM (inactive),> 100 µM (inactive)
Cc1nc(=O)n2c(c1C(=O)Nc1ccc(Cl)cc1)NCCC2,> 100 µM (inactive),> 100 µM (inactive),> 100 µM (inactive),> 100 µM (inactive),> 100 µM (inactive),> 100 µM (inactive),> 100 µM (inactive),> 100 µM (inactive),> 100 µM (inactive),> 100 µM (inactive),> 100 µM (inactive),> 100 µM (inactive),> 100 µM (inactive),–,–,> 100 µM (inactive),> 100 µM (inactive),> 100 µM (inactive)
C/C=C(\C)c1cc(O)c(C)c2c1Oc1cc(O)c(Cl)c(C)c1C(=O)O2,–,25.3 µM (inactive),26.8 µM (inactive),> 10 µM (inactive),19.2 µM (inactive),–,–,–,–,16.7 µM (inactive),30.5 µM (inactive),16.7 µM (inactive),–,19.6 µM (inactive),21.5 µM (inactive),–,17.6 µM (inactive),–
CN(/N=C/c1cccc2cccnc12)c1ccc([N+](=O)[O-])cc1,> 100 µM (inactive),> 100 µM (inactive),> 100 µM (inactive),> 100 µM (inactive),20.7 µM (inactive),> 100 µM (inactive),> 100 µM (inactive),> 100 µM (inactive),> 100 µM (inactive),–,> 100 µM (inactive),> 100 µM (inactive),43.1 µM (inactive),21.4 µM (inactive),> 100 µM (inactive),> 100 µM (inactive),> 100 µM (inactive),> 100 µM (inactive)
Clc1ccc(SCCSCCCCCCCCCCSCCSc2ccc(Cl)cc2)cc1,> 100 µM (inactive),> 100 µM (inactive),> 100 µM (inactive),–,> 100 µM (inactive),> 100 µM (inactive),> 100 µM (inactive),> 100 µM (inactive),> 100 µM (inactive),–,> 100 µM (inactive),> 100 µM (inactive),> 100 µM (inactive),> 100 µM (inactive),> 100 µM (inactive),> 100 µM (inactive),> 100 µM (inactive),> 100 µM (inactive)
O=C1C(c2ccccc2)=[N+]([O-])c2cc([N+](=O)[O-])c(/C(Cl)=C/c3ccccc3)cc21,10.5 µM (inactive),17.3 µM (inactive),25.7 µM (inactive),–,22.3 µM (inactive),13.8 µM (inactive),13.9 µM (inactive),–,13.5 µM (inactive),13.1 µM (inactive),35.2 µM (inactive),53.3 µM (inactive),> 100 µM (inactive),31.4 µM (inactive),–,23.2 µM (inactive),13.7 µM (inactive),13.9 µM (inactive)
C=C1CCc2occ(C)c2C2C1C1=C(CC(C)C1=O)C1OC12C (stereo not given),> 100 µM (inactive),> 100 µM (inactive),> 100 µM (inactive),83 µM (inactive),> 100 µM (inactive),> 100 µM (inactive),> 100 µM (inactive),> 100 µM (inactive),> 100 µM (inactive),> 100 µM (inactive),> 100 µM (inactive),> 100 µM (inactive),> 100 µM (inactive),34.7 µM (inactive),> 100 µM (inactive),> 100 µM (inactive),> 100 µM (inactive),–
COc1cc2c(c(OC)c1OC)-c1ccc(OC)c(=O)cc1[C@@H](N(C)C=O)CC2,0.0164 µM (active),0.0129 µM (active),9.2 µM (inactive),0.0173 µM (active),0.0156 µM (active),0.0128 µM (active),0.0212 µM (active),0.0184 µM (active),0.0112 µM (active),1.37 µM (inactive),0.0219 µM (active),0.0146 µM (active),–,< 0.01 µM (active),–,0.0262 µM (active),0.0249 µM (active),0.0249 µM (active)
C=C1CCCC2OC(OC)CCC12 (stereo not given),> 100 µM (inactive),> 100 µM (inactive),> 100 µM (inactive),> 100 µM (inactive),> 100 µM (inactive),> 100 µM (inactive),> 100 µM (inactive),> 100 µM (inactive),> 100 µM (inactive),> 100 µM (inactive),> 100 µM (inactive),> 100 µM (inactive),> 100 µM (inactive),> 100 µM (inactive),> 100 µM (inactive),> 100 µM (inactive),–,> 100 µM (inactive)
C(=N\OCc1ccccc1)/c1ncccc1C1OCCO1,> 100 µM (inactive),> 100 µM (inactive),> 100 µM (inactive),> 100 µM (inactive),> 100 µM (inactive),> 100 µM (inactive),> 100 µM (inactive),> 100 µM (inactive),> 100 µM (inactive),> 100 µM (inactive),> 100 µM (inactive),> 100 µM (inactive),> 100 µM (inactive),> 100 µM (inactive),> 100 µM (inactive),> 100 µM (inactive),> 100 µM (inactive),–
